Results published in patent US5294718A, “Piperidino-3,4-dihydrocarbostyril compounds” (Kissei Pharmaceutical Co., Ltd., priority 1993, dated 1994).

System: Adenosine Diphosphate (ADP)-Induced Platelet Aggregation
Test: Inhibitory Effect on Adenosine Diphosphate (ADP)-Induced Platelet Aggregation (turbidimetric method, platelet rich plasma)
Format: cell-based, Japanese White rabbit
Conditions: Oryctolagus cuniculus; rabbit platelet rich plasma; aggregation induced by 20 μM ADP; read-out: concentration at which the compound inhibited 50% of platelet aggregation (IC50)
Procedure: Platelet rich plasma (PRP) was prepared from Japanese White rabbit blood drawn from the carotid artery into a syringe containing 3.8% sodium citrate (1/10) volume, and centrifuged at 400×g for 10 min. Platelet aggregation in PRP was induced by 20 μM ADP and determined by the turbidimetric method using an aggregomater (Hema-Tracer: Niko Bioscience Co., Ltd., Japan).

In order of rising IC50:
1. N#Cc1cc2c(cc1N1CCC(O)CC1)CCC(=O)N2 [Compound 7, 7-Cyano-6-(4-hydroxypiperidino)-3,4-dihydrocarbostyril]  18 µM
2. O=C1CCc2cc(N3CCC(O)CC3)c(Br)cc2N1 [Compound 3, 7-Bromo-6-(4-hydroxypiperidino)-3,4-dihydrocarbostyril]  26 µM
3. O=C1CCc2cc(N3CCC(O)CC3)c(Cl)cc2N1 [Compound 5, 7-Chloro-6-(4-hydroxypiperidino)-3,4-dihydrocarbostyril]  26 µM
4. O=C1CCc2cc(N3CCC(O)CC3)c([N+](=O)[O-])cc2N1 [Compound 1, 6-(4-Hydroxypiperidino)-7-nitro-3,4-dihydrocarbostyril]  37 µM
5. CCC(=O)OC1CCN(c2cc3c(cc2[N+](=O)[O-])NC(=O)CC3)CC1 [Compound 11, 6-(4-Propionyloxypiperidino)-7-nitro-3,4-dihydrocabostyril]  37 µM
6. O=C1CCc2cc(N3CCC(O)CC3)c(C(F)(F)F)cc2N1 [Compound 12, 6-(4-Hydroxypiperidino)-7-trifluoromethyl-3,4-dihydrocarbostyril]  39 µM
7. COC(=O)c1cc2c(cc1N1CCC(O)CC1)CCC(=O)N2 [Compound 8, 6-(4-Hydroxypiperidino)-7-methoxycarbonyl-3,4-dihydrocarbostyril]  42 µM
8. O=C1CCc2cc(N3CCC(O)CC3)c(F)cc2N1 [Compound 10, 7-Fluoro-6-(4-hydroxypiperidino)-3,4-dihydrocarbostyril]  51 µM
9. O=C1CCc2c(ccc(N3CCC(O)CC3)c2[N+](=O)[O-])N1 [Compound 2, 6-(4-Hydroxypiperidino)-5-nitro-3,4-dihydrocarbostyril]  55 µM
10. Cc1cc2c(cc1N1CCC(O)CC1)CCC(=O)N2 [Compound 9, 6-(4-Hydroxypiperidino)-7-methyl-3,4-dihydrocarbostyril]  130 µM
11. O=C1CCc2c(ccc(N3CCC(O)CC3)c2Br)N1 [Compound 4, 5-Bromo-6-(4-hydroxypiperidino)-3,4-dihydrocarbostyril]  140 µM
12. O=C1CCc2c(ccc(N3CCC(O)CC3)c2Cl)N1 [Compound 6, 5-Chloro-6-(4-hydroxypiperidino)-3,4-dihydrocarbostyril]  290 µM
